These results are taken from patent publication US20240025887A1, “THIENYL AND CYCLOALKYL AMINOPYRIMIDINE COMPOUNDS AS INHIBITORS OF NUAK KINASES, COMPOSITIONS AND USES THEREOF” (Ontario Institute for Cancer Research (OICR), priority 2021, published 2024).

Where only a bound is given, the exact number is not on record here.

Type in all cases: biochemical
The target of one experiment is T1, NUAK2 (h) (Homo sapiens, UniProt Q9H093).
T1 construct: This assay was done radiometrically using full-length, recombinant enzyme; purchased Eurofins
T1 sequence (Q9H093 1-628): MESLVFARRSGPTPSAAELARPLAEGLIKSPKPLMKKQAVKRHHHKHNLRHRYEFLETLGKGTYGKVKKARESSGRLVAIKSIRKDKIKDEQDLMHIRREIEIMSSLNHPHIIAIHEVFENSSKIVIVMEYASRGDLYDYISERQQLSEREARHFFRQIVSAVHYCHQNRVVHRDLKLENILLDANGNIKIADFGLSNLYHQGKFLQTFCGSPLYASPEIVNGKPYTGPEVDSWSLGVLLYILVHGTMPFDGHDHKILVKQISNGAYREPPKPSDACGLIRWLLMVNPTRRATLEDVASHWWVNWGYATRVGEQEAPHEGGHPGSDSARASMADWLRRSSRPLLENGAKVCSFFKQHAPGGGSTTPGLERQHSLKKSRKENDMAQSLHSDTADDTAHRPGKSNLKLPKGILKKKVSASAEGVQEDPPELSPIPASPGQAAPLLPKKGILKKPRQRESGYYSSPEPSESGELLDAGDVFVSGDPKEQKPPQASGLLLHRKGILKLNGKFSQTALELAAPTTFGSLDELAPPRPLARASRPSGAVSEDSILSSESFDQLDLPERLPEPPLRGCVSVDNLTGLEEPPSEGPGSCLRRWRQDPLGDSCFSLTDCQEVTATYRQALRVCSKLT
Put plainly: NUAK2 enzymatic assay (radiometric, Eurofins). The following applies: radiometric, full-length recombinant enzyme. As to the method: (§1) To identify small molecule NUAK inhibitors, a biochemical NUAK2 enzymatic assay was outsourced to Eurofins. This assay was done radiometrically using full-length, recombinant enzyme. NUAK2 (h) was incubated with 8 mM MOPS pH 7.0, 0.2 mM EDTA, 300 μM […], 10 mM magnesium acetate and […] (specific activity and concentration as required). The reaction was initiated by the addition of the Mg/ATP mix. After incubation for 40 minutes at room temperature, the reaction was stopped by the addition of phosphoric acid to a concentration of 0.5%. 10 μL of the reaction was then spotted onto a P30 filter mat and washed four times for 4 minutes in 0.425% phosphoric acid and once in methanol prior to drying and scintillation counting. Compounds were routinely counter screened against Aurora A and NUAK1. The results are shown in Table 1 where IC50s are reported the following ranges: A: 0.1-10 nM; B: 11-100 nM; C: 101-1000 nM; D: >1000 nM for the compounds of Formula I)

A further experiment addresses T2, NUAK1 (Homo sapiens, UniProt O60285).
T2 sequence (O60285 1-661): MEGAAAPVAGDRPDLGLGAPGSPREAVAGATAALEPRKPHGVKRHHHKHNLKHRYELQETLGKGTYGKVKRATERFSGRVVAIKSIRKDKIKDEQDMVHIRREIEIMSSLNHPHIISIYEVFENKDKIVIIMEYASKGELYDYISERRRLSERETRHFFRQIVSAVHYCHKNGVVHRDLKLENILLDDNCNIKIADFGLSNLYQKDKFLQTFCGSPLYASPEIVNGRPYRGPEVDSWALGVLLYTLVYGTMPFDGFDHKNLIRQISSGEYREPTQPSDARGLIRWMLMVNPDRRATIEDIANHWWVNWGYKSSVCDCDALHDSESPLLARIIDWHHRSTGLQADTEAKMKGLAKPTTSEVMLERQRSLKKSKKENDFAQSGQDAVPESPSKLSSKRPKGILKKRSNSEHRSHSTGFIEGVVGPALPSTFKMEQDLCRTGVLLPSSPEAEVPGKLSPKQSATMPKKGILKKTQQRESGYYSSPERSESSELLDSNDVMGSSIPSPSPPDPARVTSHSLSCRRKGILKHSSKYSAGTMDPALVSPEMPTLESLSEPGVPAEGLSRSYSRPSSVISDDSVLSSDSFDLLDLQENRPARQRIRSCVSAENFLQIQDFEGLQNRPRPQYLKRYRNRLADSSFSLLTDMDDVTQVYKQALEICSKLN
Put plainly: NUAK1 counter screen. As to the method: as §1
(Counterscreens check selectivity or assay interference.)

In another experiment the target is T3, Aurora A (Homo sapiens, UniProt O14965).
T3 sequence (O14965 1-403): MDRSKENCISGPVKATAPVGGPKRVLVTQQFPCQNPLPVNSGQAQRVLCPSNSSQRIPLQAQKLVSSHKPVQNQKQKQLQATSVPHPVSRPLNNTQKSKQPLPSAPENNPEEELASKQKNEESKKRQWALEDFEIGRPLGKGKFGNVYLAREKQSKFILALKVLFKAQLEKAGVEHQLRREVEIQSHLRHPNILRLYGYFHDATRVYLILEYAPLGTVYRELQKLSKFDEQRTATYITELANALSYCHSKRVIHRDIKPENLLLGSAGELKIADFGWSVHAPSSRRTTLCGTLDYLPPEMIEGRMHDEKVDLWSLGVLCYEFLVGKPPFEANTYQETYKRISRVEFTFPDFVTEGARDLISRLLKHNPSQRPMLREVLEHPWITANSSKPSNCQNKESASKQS
The experiment in a line: Aurora A counter screen. The following applies: read-out: AUR-A (IC50). As to the method: as §1

The IC50 is the point on the concentration scale where inhibition reaches its midpoint. `NC(=O)c1ccsc1Nc1nc(Nc2ccc(N3CCNCC3)cc2OC(F)F)ncc1Cl` [Compound I-2, 2-((5-chloro-2-((2-(difluoromethoxy)-4-(piperazin-1-yl)phenyl)amino)pyrimidin-4-yl)amino)thiophene-3-carboxamide]: the IC50 at NUAK2 (h) was 11 to 100 nM; against NUAK1, 11 to 100 nM; on Aurora A, over 1000 nM.

Take `CN1CCN(c2ccc(Nc3nccc(Nc4ccsc4C(N)=O)n3)c(OC(F)F)c2)CC1` [Compound I-3, 3-((2-((2-(difluoromethoxy)-4-(4-methylpiperazin-1-yl)phenyl)amino)pyrimidin-4-yl)amino)thiophene-2-carboxamide]: the values for the concentration for half-maximal inhibition (IC50) on NUAK2 (h), on NUAK1 and at Aurora A were 101 to 1000 nM, 101 to 1000 nM and over 1000 nM, respectively.

As to `Cc1cnc(Nc2ccc(N3CCN(C)CC3)cc2OC(F)F)nc1Nc1ccsc1C(N)=O` [Compound I-4, 3-((2-((2-(difluoromethoxy)-4-(4-methylpiperazin-1-yl)phenyl)amino)-5-methylpyrimidin-4-yl)amino)thiophene-2-carboxamide], the IC50 is 11 to 100 nM on NUAK2 (h), 11 to 100 nM at NUAK1 and over 1000 nM on Aurora A.

Regarding `CCN1CCN(c2ccc(Nc3ncc(Cl)c(Nc4ccsc4C(N)=O)n3)c(OC(F)F)c2)CC1` [Compound I-5, 3-((5-chloro-2-((2-(difluoromethoxy)-4-(4-ethylpiperazin-1-yl)phenyl)amino)pyrimidin-4-yl)amino)thiophene-2-carboxamide], the values for the half-maximal inhibitory concentration (IC50) on NUAK2 (h), at NUAK1 and at Aurora A were 11 to 100 nM, 11 to 100 nM and over 1000 nM, respectively.

On to `CN1CCN(c2cc(OC(F)F)c(Nc3ncc(Cl)c(Nc4ccsc4C(N)=O)n3)cc2F)CC1` [Compound I-6, 3-((5-chloro-2-((2-(difluoromethoxy)-5-fluoro-4-(4-methylpiperazin-1-yl)phenyl)amino)pyrimidin-4-yl)amino)thiophene-2-carboxamide], for which the results for the half-inhibitory concentration (IC50) at NUAK2 (h), against NUAK1 and on Aurora A were 11 to 100 nM, 11 to 100 nM and 101 to 1000 nM, respectively.

Regarding `CNC(=O)c1sccc1Nc1nc(Nc2ccc(N3CCN(C)CC3)cc2OC(F)F)ncc1Cl` [Compound I-7, 3-((5-chloro-2-((2-(difluoromethoxy)-4-(4-methylpiperazin-1-yl)phenyl)amino)pyrimidin-4-yl)amino)-N-methylthiophene-2-carboxamide], the IC50 at NUAK2 (h) lay in the range of 11 to 100 nM; against NUAK1, 11 to 100 nM; on Aurora A, 101 to 1000 nM.

Regarding `C[C@@H]1CN(c2ccc(Nc3ncc(Cl)c(Nc4ccsc4C(N)=O)n3)c(OC(F)F)c2)C[C@H](C)N1C` [Compound I-8, 3-((5-chloro-2-((2-(difluoromethoxy)-4-((3R,5S)-3,4,5-trimethylpiperazin-1-yl)phenyl)amino)pyrimidin-4-yl)amino)thiophene-2-carboxamide], the IC50 on NUAK2 (h) was 0.1 to 10 nM; at NUAK1 it was 0.1 to 10 nM; on Aurora A it was 11 to 100 nM.

Consider `CN1C[C@H]2C[C@@H]1CN2c1ccc(Nc2ncc(Cl)c(Nc3ccsc3C(N)=O)n2)c(OC(F)F)c1` [Compound I-9, 3-((5-chloro-2-((2-(difluoromethoxy)-4-((1R,4R)-5-methyl-2,5-diazabicyclo[2.2.1]heptan-2-yl)phenyl)amino)pyrimidin-4-yl)amino)thiophene-2-carboxamide], for which the figures for the half-maximal inhibitory concentration (IC50) on NUAK2 (h), against NUAK1 and on Aurora A were 0.1 to 10 nM, 11 to 100 nM and 101 to 1000 nM, respectively.

For the compound `CN1CCN(c2ccc(Nc3ncc(Cl)c(Nc4ccsc4C(N)=O)n3)c(OC(F)(F)F)c2)CC1` [Compound I-10, 3-((5-chloro-2-((4-(4-methylpiperazin-1-yl)-2-(trifluoromethoxy)phenyl)amino)pyrimidin-4-yl)amino)thiophene-2-carboxamide], the IC50 at NUAK2 (h) is 0.1 to 10 nM; on NUAK1, 11 to 100 nM; on Aurora A it was over 1000 nM.
